# Reference: patent publication US20150202172A1, “NOVEL METHOD OF USE” (Glaxo Group Limited, priority 2014, published 2015)
# Where “and” joins values, the source holds several entries; their conditions need not be identical. Equal entries are not always repeated.
# Tests used:
# [1] = tested on: patients with Severe Refractory Chronic Hand Eczema (CHE); experiment: Clinical trial simulation (longitudinal dose response model): time from initial dose to onset of effect; format: in vivo, human; settings: age 75 yr; 30 mg
# Experimental: (§1) In reviewing the data to make these determinations, all available PGA scores observed (not including scores derived from missing data such as last observation carried forward (LOCF) including those at baseline, every 4 weeks during treatment, and every 4 to 8 weeks after cessation of treatment for up to 72 weeks post treatment from the various clinical trials were used to develop a longitudinal dose response model.
# (§2) In clinical studies, efficacy was measured using PGA score and modified total lesion signs and symptoms (mTLSS) at various times during and post treatment. PGA scores over time were chosen for this analysis because PGA scores were the primary endpoint in the Phase III studies and were collected at more time points than the mTLSS. The PGA was graded according to 5 point scale (clear, almost clear, mild disease, moderate disease, severe disease). The mTLSS severity score was graded 0 to 3 for 7 parameters.
# A >2 weeks time to onset is considered clinically relevant.
# [2] = tested on: patients with Severe Refractory Chronic Hand Eczema (CHE); experiment: Clinical trial simulation (longitudinal dose response model): no relapse (PGA ≠ 5) by 6 months post treatment; format: in vivo, human; settings: for Proportion of Responders Who Did Not Relapse (PGA ≠ 5) 6 months Post Treatment / Proportion of Subjects with PGA = 1 at end of treatment who did not relapse (PGA ≠ 5) 6 Months Post Treatment / Proportion of Subjects with PGA = 2 at the end of treatment who did not relapse (PGA ≠ 5) 6 Months Post Treatment / Proportion of Subjects with PGA = 3 at the end of treatment who did not relapse (PGA ≠ 5) 6 Months Post Treatment / Proportion of Subjects with PGA = 1 Who Did Not Relapse (PGA ≠ 5) 6 Months Post Treatment / Proportion of Subjects with PGA = 2 Who Did Not Relapse (PGA ≠ 5) 6 Months Post Treatment / Proportion of Subjects with PGA = 3 Who Did Not Relapse (PGA ≠ 5) 6 Months Post Treatment: 30 mg
# Experimental: as §1, §2
# For the Physician Global Assessment (PGA), a general description of CHE severity, which is a well recognized scale is shown below in Table 7 for clarification purposes.
smiles,measurement,setting,value
"CC1=C(/C=C/C(C)=C\C=C\C(C)=C\C(=O)O)C(C)(C)CCC1 [Alitretinoin, 9-cis isomer of retinoic acid (RA)]",Time to Onset of Effect (a Drop of 2 or More Points in PGA in 30% of Subjects),[1],"39 (35, 42) Days"
same,subjects who responded (PGA score=1 or 2) who would not return to severe disease within 6 months post treatment,[2]; PGA score=1 or 2,> 83%
same,difference between a 75 year old and 30 year old in the proportion of patients who did not relapse (PGA score≠5) 6 months after treatment,[2]; PGA=1 or PGA=2 at end of treatment (individually),10%
same,Proportion of Responders Who Did Not Relapse (PGA ≠ 5) 6 months Post Treatment,[2]; age 30 yr,"79% and 78.7 (67, 90) %"
same,Proportion of Subjects with PGA = 1 at end of treatment who did not relapse (PGA ≠ 5) 6 Months Post Treatment,[2]; age 30 yr,"77.7 (56, 92) %"
same,Proportion of Subjects with PGA = 2 at the end of treatment who did not relapse (PGA ≠ 5) 6 Months Post Treatment,[2]; age 30 yr,"77.6 (62, 91) %"
same,Proportion of Subjects with PGA = 3 at the end of treatment who did not relapse (PGA ≠ 5) 6 Months Post Treatment,[2]; age 30 yr,"76.8 (63, 89) %"
same,Proportion of Responders Who Did Not Relapse (PGA ≠ 5) 6 months Post Treatment,[2]; age 50 yr,"83.2 (73, 92) %"
same,Proportion of Subjects with PGA = 1 at end of treatment who did not relapse (PGA ≠ 5) 6 Months Post Treatment,[2]; age 50 yr,"82.4 (65, 94) %"
same,Proportion of Subjects with PGA = 2 at the end of treatment who did not relapse (PGA ≠ 5) 6 Months Post Treatment,[2]; age 50 yr,"82.6 (70, 93) %"
same,Proportion of Subjects with PGA = 3 at the end of treatment who did not relapse (PGA ≠ 5) 6 Months Post Treatment,[2]; age 50 yr,"81.1 (68, 93) %"
same,Proportion of Responders Who Did Not Relapse (PGA ≠ 5) 6 months Post Treatment,[2]; age 65 yr,"87% and 86.6 (78, 94) %"
same,Proportion of Subjects with PGA = 1 at end of treatment who did not relapse (PGA ≠ 5) 6 Months Post Treatment,[2]; age 65 yr,"86.0 (73, 95) %"
same,Proportion of Subjects with PGA = 2 at the end of treatment who did not relapse (PGA ≠ 5) 6 Months Post Treatment,[2]; age 65 yr,"86.0 (74, 96) %"
same,Proportion of Subjects with PGA = 3 at the end of treatment who did not relapse (PGA ≠ 5) 6 Months Post Treatment,[2]; age 65 yr,"84.3 (72, 95) %"
same,Proportion of Responders Who Did Not Relapse (PGA ≠ 5) 6 months Post Treatment,[2]; age 75 yr,"89% and 88.7 (81, 95) %"
same,Proportion of Subjects with PGA = 1 at end of treatment who did not relapse (PGA ≠ 5) 6 Months Post Treatment,[2]; age 75 yr,"88.1 (76, 96) %"
same,Proportion of Subjects with PGA = 2 at the end of treatment who did not relapse (PGA ≠ 5) 6 Months Post Treatment,[2]; age 75 yr,"88.0 (78, 96) %"
same,Proportion of Subjects with PGA = 3 at the end of treatment who did not relapse (PGA ≠ 5) 6 Months Post Treatment,[2]; age 75 yr,"86.5 (74, 96) %"
same,Proportion of Responders Who Did Not Relapse (PGA ≠ 5) 6 months Post Treatment,[2]; duration of treatment 4 weeks,"79.2 (68, 89) %"
same,Proportion of Subjects with PGA = 1 Who Did Not Relapse (PGA ≠ 5) 6 Months Post Treatment,[2]; duration of treatment 4 weeks,"79.8 (61, 93) %"
same,Proportion of Subjects with PGA = 2 Who Did Not Relapse (PGA ≠ 5) 6 Months Post Treatment,[2]; duration of treatment 4 weeks,"77.9 (64, 91) %"
same,Proportion of Subjects with PGA = 3 Who Did Not Relapse (PGA ≠ 5) 6 Months Post Treatment,[2]; duration of treatment 4 weeks,"76.4 (62, 88) %"
same,Proportion of Responders Who Did Not Relapse (PGA ≠ 5) 6 months Post Treatment,[2]; duration of treatment 8 weeks,"80.7 (70, 90) %"
same,Proportion of Subjects with PGA = 1 Who Did Not Relapse (PGA ≠ 5) 6 Months Post Treatment,[2]; duration of treatment 8 weeks,"81.0 (63, 94) %"
same,Proportion of Subjects with PGA = 2 Who Did Not Relapse (PGA ≠ 5) 6 Months Post Treatment,[2]; duration of treatment 8 weeks,"79.5 (67, 92) %"
same,Proportion of Subjects with PGA = 3 Who Did Not Relapse (PGA ≠ 5) 6 Months Post Treatment,[2]; duration of treatment 8 weeks,"77.8 (65, 89) %"
same,Proportion of Responders Who Did Not Relapse (PGA ≠ 5) 6 months Post Treatment,[2]; duration of treatment 12 weeks,"82.3 (68, 95) %"
same,Proportion of Subjects with PGA = 1 Who Did Not Relapse (PGA ≠ 5) 6 Months Post Treatment,[2]; duration of treatment 12 weeks,"81.9 (64, 94) %"
same,Proportion of Subjects with PGA = 2 Who Did Not Relapse (PGA ≠ 5) 6 Months Post Treatment,[2]; duration of treatment 12 weeks,"80.8 (68, 92) %"
same,Proportion of Subjects with PGA = 3 Who Did Not Relapse (PGA ≠ 5) 6 Months Post Treatment,[2]; duration of treatment 12 weeks,"79.1 (67, 90) %"
same,Proportion of Responders Who Did Not Relapse (PGA ≠ 5) 6 months Post Treatment,[2]; duration of treatment 16 weeks,"83.3 (72, 94) %"
same,Proportion of Subjects with PGA = 1 Who Did Not Relapse (PGA ≠ 5) 6 Months Post Treatment,[2]; duration of treatment 16 weeks,"82.5 (66, 94) %"
same,Proportion of Subjects with PGA = 2 Who Did Not Relapse (PGA ≠ 5) 6 Months Post Treatment,[2]; duration of treatment 16 weeks,"81.7 (69, 92) %"
same,Proportion of Subjects with PGA = 3 Who Did Not Relapse (PGA ≠ 5) 6 Months Post Treatment,[2]; duration of treatment 16 weeks,"80.1 (67, 91) %"
same,Proportion of Responders Who Did Not Relapse (PGA ≠ 5) 6 months Post Treatment,[2]; duration of treatment 20 weeks,"83.9 (72, 94) %"
same,Proportion of Subjects with PGA = 1 Who Did Not Relapse (PGA ≠ 5) 6 Months Post Treatment,[2]; duration of treatment 20 weeks,"83.1 (67, 94) %"
same,Proportion of Subjects with PGA = 2 Who Did Not Relapse (PGA ≠ 5) 6 Months Post Treatment,[2]; duration of treatment 20 weeks,"82.6 (69, 94) %"
same,Proportion of Subjects with PGA = 3 Who Did Not Relapse (PGA ≠ 5) 6 Months Post Treatment,[2]; duration of treatment 20 weeks,"80.9 (68, 92) %"
same,Proportion of Responders Who Did Not Relapse (PGA ≠ 5) 6 months Post Treatment,[2]; duration of treatment 24 weeks,"84.4 (75, 93) %"
same,Proportion of Subjects with PGA = 1 Who Did Not Relapse (PGA ≠ 5) 6 Months Post Treatment,[2]; duration of treatment 24 weeks,"83.7 (67, 94) %"
same,Proportion of Subjects with PGA = 2 Who Did Not Relapse (PGA ≠ 5) 6 Months Post Treatment,[2]; duration of treatment 24 weeks,"83.3 (70, 95) %"
same,Proportion of Subjects with PGA = 3 Who Did Not Relapse (PGA ≠ 5) 6 Months Post Treatment,[2]; duration of treatment 24 weeks,"81.6 (68, 92) %"
